The subject of assay [1] is cultured human mast cells (CHMC). As to the kind of experiment: CHMC low cell density IgE activation: tryptase assay. Format: cell-based. The note with it: IgE activation. In short, it runs like this:
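Fluorogenic readout of tryptase released into the supernatant (30 min substrate incubation, room temperature) measures degranulation. Cells were plated at low density (1000–1500/well, varied by donor) and triggered with anti-IgE for 30 min at 37 °C.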

For assay [2] the test system is unchanged. As to the kind of experiment: CHMC low cell density ionomycin activation: tryptase assay. Format: cell-based. Particulars: read-out: LD Tryptase, CHMC, Iono, 3 pt.
Setting [3] is: Homo sapiens, Mast cell, low cell density CHMC, tryptase readout, 3 pt, read-out: LD Tryptase, CHMC, IgE, 3 pt.
Setting [4] is: Homo sapiens, Mast cell, low cell density CHMC, tryptase readout, 3 pt.
Where [5] appears, read: low cell density CHMC, tryptase readout, 3 pt, read-out: LD Tryptase, CHMC, IgE, 3 pt.
Where [6] appears, read: low cell density CHMC, tryptase readout, 8 pt, read-out: LD Tryptase, CHMC, IgE, 8 pt.
Where [7] appears, read: low cell density CHMC, tryptase readout, 3 pt.
Setting [8] is: Homo sapiens, Mast cell, low cell density CHMC, tryptase, 3 pt, read-out: LD Tryptase, CHMC, IgE, 3 pt.
Setting [9] is: Homo sapiens, Mast cell, low cell density CHMC, tryptase, 3 pt.
[10] abbreviates: low cell density CHMC, tryptase, 3 pt, read-out: LD Tryptase, CHMC, IgE, 3 pt.
The mark [11] stands for this setting: low cell density CHMC, tryptase, 8 pt, read-out: LD Tryptase, CHMC, IgE, 8 pt.
[12] abbreviates: low cell density CHMC, tryptase, 3 pt.
[13] abbreviates: low cell density, 3 pt, read-out: LD Tryptase, CHMC, IgE, 3 pt.
Setting [14] is: Homo sapiens, Mast cell, low cell density CHMC, tryptase release, 3 point, read-out: LD Tryptase, CHMC, IgE, 3 pt.
[15] abbreviates: Homo sapiens, Mast cell, low cell density CHMC, tryptase release, 3 point.

Where a name gives a salt, the structure may show the parent alone.

With `NC(=S)c1cccc(Nc2ncc(F)c(Nc3ccc4c(c3)NC(=O)CO4)n2)c1` [Compound 261, N2-(3-Benzothioamide)-5-fluoro-N4-(3-oxo-2H,4H-benz[1,4]oxazin-6-yl)-2,4-pyrimidinediamine], the IC50 in assay [1] (low cell density CHMC, tryptase release, 3 pt, read-out: LD Tryptase, CHMC, IgE, 3 pt) is below 10 µM; in assay [2] (low cell density CHMC, tryptase release, 3 pt), above 10 µM.

Consider `CC(=O)N1CCN(c2ccc(Nc3ncc(F)c(Nc4cccc(NC5=NCCN5)c4)n3)cc2)CC1` [Compound 1105, N2-[4-(4-Acetylpiperazino)phenyl]-5-fluoro-N4-[3-(N-2-imidazolin-2-yl)aminophenyl]-2,4-pyrimidinediamine], for which the IC50 in assay [1] (setting [3]) and in assay [2] (setting [4]) was above 10 µM in each case.

Regarding `Cn1ncc2ccc(Nc3ncc(F)c(Nc4ccc5c(n4)NCC(C)(C)O5)n3)cc21` [Compound 1052, N4-(3,4-Dihydro-2,2-dimethyl-4H-5-pyrid[1,4]oxazin-6-yl)-5-fluoro-N2-(1-methylindazol-6-yl)-2,4-pyrimidinediamine], the IC50 in assay [1] (setting [5]), in assay [1] (setting [6]) and in assay [2] (setting [7]) was below 10 µM each time.

For the compound `CNC(=O)COc1c(C)cc(Nc2ncc(F)c(N(C)c3ccc4c(c3)OCCO4)n2)cc1C` [Compound 635, N2-[3,5-Dimethyl-4-(N-methylamino)carbonylmethyleneoxyphenyl]-N4-(3,4-ethylenedioxyphenyl)-5-fluoro-N4-methyl-2,4-pyrimidinediamine], the IC50 in assay [1] (low cell density CHMC, tryptase release, 3 point, read-out: LD Tryptase, CHMC, IgE, 3 pt) was below 10 µM; in assay [1] (low cell density CHMC, tryptase release, 8 point, read-out: LD Tryptase, CHMC, IgE, 8 pt), below 10 µM; in assay [2] (low cell density CHMC, tryptase release, 3 point) it was below 10 µM.

In the case of `CCOC(=O)N1CCN(c2cccc(Nc3ncc(F)c(N(C)C4CCC4)n3)c2)CC1` [Compound 1152, N4-Cyclobutyl-N2-[3-(4-ethoxycarbonylpiperazino)phenyl]-5-fluoro-N4-methyl-2,4-pyrimidinediamine], the IC50 in assay [1] (setting [8]) is below 10 µM; in assay [2] (setting [9]), above 10 µM.

Regarding `CCOC(=O)N1CCN(c2cccc(Nc3ncc(F)c(NC4CCCC4)n3)c2)CC1` [Compound 1161], the IC50 in assay [1] (setting [8]) was below 10 µM; in assay [2] (setting [9]), above 10 µM.

As to `CNC(=O)CNC(=O)c1ccc(Nc2ncc(F)c(Nc3ccc4c(c3)NC(=O)C(C)(C)O4)n2)cc1` [Compound 1295, N4-(2,2-Dimethyl-3-oxo-4H-benz[1,4]oxazin-6-yl)-5-fluoro-N2-[4-[N-(N-methylamino)carbonylmethylene]aminocarbonylphenyl]-2,4-pyrimidinediamine], the values for the IC50 in assay [1] (setting [10]), in assay [1] (setting [11]) and in assay [2] (setting [12]) were below 10 µM, below 10 µM and above 10 µM, respectively.

Take `CN1C(=O)C(C)(C)Oc2ccc(Nc3nc(Cl)ncc3F)nc21` [Compound 1006, 2-Chloro-5-fluoro-N4-(3-oxo-2,2,4-trimethyl-5-pyrid[1,4]oxazin-6-yl)-4-pyrimidineamine]: the IC50 was above 10 µM in assay [1] (setting [13]) and above 10 µM in assay [2] (low cell density, 3 pt).

As for `CNC(=O)COc1cccc(Nc2ncc(F)c(Nc3ccc4c(c3)NC(=O)C(F)(F)O4)n2)c1` [Compound 1045, N4-(2,2-Difluoro-3-oxo-4H-benz[1,4]oxazin-6-yl)-5-fluoro-N2-[3-(N-methylamino)carbonylmethyleneoxyphenyl]-2,4-pyrimidinediamine Hydrogen Chloride Salt], the IC50 was below 10 µM in assay [1] (setting [5]), below 10 µM in assay [1] (setting [6]) and above 10 µM in assay [2] (setting [7]).

Take `CNS(=O)(=O)c1ccc(Nc2ncc(F)c(Nc3ccc4c(c3)NC(=O)C(C)(C)O4)n2)cc1OC` [Compound 496, N4-(2,2-Dimethyl-3-oxo-4H-benz[1,4]oxazin-6-yl)-5-fluoro-N2-[3-methoxyphenyl-4-(methylamino)sulfonyl]-2,4-pyrimidinediamine]: the IC50 in assay [1] (setting [13]) was below 10 µM; in assay [1] (low cell density, 8 pt, read-out: LD Tryptase, CHMC, IgE, 8 pt) it was below 10 µM; in assay [2] (low cell density, 3 pt), below 10 µM.

For the compound `COc1cc(Nc2ncc(F)c(Nc3ccc4c(n3)NCCO4)n2)cc(OC)c1OC` [Compound 1145, N4-(3,4-Dihydro-2H,4H-5-pyrid[1,4]oxazin-6-yl)-5-fluoro-N2-(3,4,5-trimethoxyphenyl)-2,4-pyrimidinediamine], the IC50 in assay [1] (setting [8]) was below 10 µM; in assay [1] (Homo sapiens, Mast cell, low cell density CHMC, tryptase, 8 pt, read-out: LD Tryptase, CHMC, IgE, 8 pt), below 10 µM; in assay [2] (setting [9]), above 10 µM.

With `COC(=O)c1cc2cc(Nc3ncc(F)c(N(C)c4ccc(OC(C)C)nc4)n3)ccc2o1` [Compound 586, 5-Fluoro-N4-(2-isopropoxypyrid-5-yl)-N2-(2-methoxycarbonylbenzofuran-5-yl)-N4-methyl-2,4-pyrimidinediamine], the IC50 in assay [1] (setting [14]) and in assay [2] (setting [15]) was below 10 µM in each case.

As for `COc1cc(Nc2ncc(F)c(Nc3ccc(OC(C)(C)C(=O)O)c(Cl)c3)n2)cc(OC)c1` [Compound 409, N4-[3-Chloro-4-(hydroxycarbonyl-1,1-dimethylmethyleneoxy)phenyl]-N2-(3,5-dimethoxyphenyl)-5-fluoro-2,4-pyrimidinediamine], the IC50 in assay [1] (setting [10]) was below 10 µM; in assay [1] (setting [11]), below 10 µM; in assay [2] (setting [12]), above 10 µM.

Regarding `COCCCn1ncc2ccc(Nc3ncc(F)c(Nc4ccc(OC)c(Cl)c4)n3)cc21` [Compound 796, N4-(3-Chloro-4-methoxyphenyl)-5-fluoro-N2-[1-(3-methoxypropyl)indazol-6-yl]-2,4-pyrimidinediamine], the IC50 in assay [1] (Homo sapiens, Mast cell, low cell density CHMC, tryptase release, 3 pt, read-out: LD Tryptase, CHMC, IgE, 3 pt) was below 10 µM; in assay [1] (Homo sapiens, Mast cell, low cell density CHMC, tryptase release, 8 pt, read-out: LD Tryptase, CHMC, IgE, 8 pt), below 10 µM; in assay [2] (Homo sapiens, Mast cell, low cell density CHMC, tryptase release, 3 pt), above 10 µM.

For `COc1cc(N(C)c2nc(Cl)ncc2F)ccc1Cl` [Compound 659], the IC50 in assay [1] (setting [14]) and in assay [2] (setting [15]) was above 10 µM in each case.

Take “5-Fluoro-N4- (4-hydroxy-3,4-dihydro-2H-1-benzopyran-6-yl)-N2-[4- (oxazol-5-yl)phenyl]-2,4-pyrimidinediamine [Compound 1290]”: the results for the IC50 in assay [1] (setting [10]), in assay [1] (setting [11]) and in assay [2] (setting [12]) were below 10 µM, below 10 µM and above 10 µM, respectively.

For `COc1cc(C(N)=O)c(Nc2ncc(F)c(N(C)C3CCC3)n2)cc1OCc1ccccc1` [Compound 1153, N2-(2-Aminocarbonyl-5-benzoxy-4-methoxyphenyl)-N4-cyclobutyl-5-fluoro-N4-methyl-2,4-pyrimidinediamine], the IC50 in assay [1] (setting [8]) and in assay [2] (setting [9]) was above 10 µM throughout.

In the case of `Cc1cc(Nc2ncc(F)c(Nc3ccc4c(n3)NC(=O)C(C)(C)O4)n2)cc(Cl)c1OCC(=O)NCC(O)CO` (stereo not shown) [Compound 1043, N2-[3-Chloro-4-[N-(2,3-dihydroxypropyl)amino]carbonylmethyleneoxy-5-methylphenyl]-N4-(2,2-dimethyl-3-oxo-4H-5-pyrid[1,4]oxazin-6-yl)-5-fluoro-2,4-pyrimidinediamine], the IC50 was below 10 µM in assay [1] (setting [5]), below 10 µM in assay [1] (setting [6]) and above 10 µM in assay [2] (setting [7]).

For the compound `COC(=O)CN(c1ccc2c(c1)OCCO2)c1nc(Cl)ncc1F` [Compound 418], the IC50 in assay [1] (setting [8]) and in assay [2] (setting [9]) was above 10 µM each time.

For `Cc1cc(N(C)c2nc(Nc3ccc(-c4cocn4)cc3)ncc2F)cc(C)c1Cl` [Compound 604], the IC50 was below 10 µM in assay [1] (setting [14]) and above 10 µM in assay [2] (setting [15]).

Turning to `C[C@@H]1Oc2ccc(Nc3nc(Nc4ccc(CNC(=O)CNC(=O)OC(C)(C)C)cc4)ncc3F)cc2NC1=O` [Compound 1308, (S)-N2-[4-[1-(tert-Butoxycarbonylamino)methylenecarbonylamino]methylphenyl]-5-fluoro-N4-(2-methyl-3-oxo-2H,4H-benz[1,4]oxazin-6-yl)-2,4-pyrimidinediamine], the IC50 in assay [1] (setting [10]), in assay [1] (setting [11]) and in assay [2] (setting [12]) was below 10 µM throughout.

Consider `CC(=O)N1CCN(c2cccc(Nc3ncc(F)c(NC4CCC4)n3)c2)CC1` [Compound 1085, N2-[3-(4-Acetylpiperazino)phenyl]-N4-cyclobutyl-5-fluoro-2,4-pyrimidinediamine], for which the IC50 in assay [1] (setting [3]) was below 10 µM; in assay [2] (setting [4]) it was above 10 µM.

For the compound `CC1(C)Oc2ccc(Nc3nc(Nc4cccc(-c5cocn5)c4)ncc3F)cc2NC1=O` [Compound 1036, N4-(2,2-Dimethyl-3-oxo-4H-benz[1,4]oxazin-6-yl)-5-fluoro-N2-[3-(oxazol-4-yl)phenyl]-2,4-pyrimidinediamine], the IC50 in assay [1] (setting [3]) was below 10 µM; in assay [1] (Homo sapiens, Mast cell, low cell density CHMC, tryptase readout, 8 pt, read-out: LD Tryptase, CHMC, IgE, 8 pt), below 10 µM; in assay [2] (setting [4]) it was below 10 µM.

The values are drawn from patent US20220073536A1 (Rigel Pharmaceuticals, Inc., priority 2003, published 2022).
